Experimental data as given in article PMC8119466, “A screen of FDA-approved drugs identifies inhibitors of protein tyrosine phosphatase 4A3 (PTP4A3 or PRL-3)” (Scientific Reports, 2021).
Structures can show the parent of a compound that is named as a salt. Where two headings read alike, the source gives them in different places.

How the values were obtained:
Type in all cases: biochemical
[1] = biological target: T1, recombinant PRL-1 (Homo sapiens, UniProt Q93096); assay: In vitro phosphatase assay (DiFMUP hydrolysis), PRL-1; note: test concentration or dose not given here
T1 construct: 6xHis (N, cleaved yes); made in house; host or cells: E. coli One Shot BL21 Star
T1 sequence (Q93096 1-173): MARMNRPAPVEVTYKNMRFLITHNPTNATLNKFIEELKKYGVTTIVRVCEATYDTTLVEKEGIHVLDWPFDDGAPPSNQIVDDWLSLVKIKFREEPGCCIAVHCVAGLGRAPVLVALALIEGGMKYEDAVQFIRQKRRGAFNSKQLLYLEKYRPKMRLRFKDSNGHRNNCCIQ

[2] = biological target: T2, recombinant PRL-2 (Homo sapiens, UniProt Q12974); assay: In vitro phosphatase assay (DiFMUP hydrolysis), PRL-2;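 note: PRL-2 activity read as DiFMUP hydrolysis after 20 min at room temperature with drug, enzyme first pre-reduced at 4 °C for 20 min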
T2 construct: 6xHis (N, cleaved yes); made in house; host or cells: E. coli One Shot BL21 Star
T2 sequence (Q12974 1-167): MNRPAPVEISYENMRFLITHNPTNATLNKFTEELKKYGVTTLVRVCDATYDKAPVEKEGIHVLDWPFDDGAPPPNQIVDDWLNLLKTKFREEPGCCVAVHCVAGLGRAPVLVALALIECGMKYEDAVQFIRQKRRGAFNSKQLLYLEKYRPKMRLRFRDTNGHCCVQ

[3] = biological target: T3, recombinant PRL-3 (Homo sapiens, UniProt O75365); assay: In vitro phosphatase assay (DiFMUP hydrolysis), PRL-3; note: test concentration or dose not given here
T3 construct: 6xHis (N, cleaved yes); made in house; host or cells: E. coli One Shot BL21 Star

[4] = FDA-approved drug screen, compared to DMSO
[5] = FDA-approved drug screen, activity compared to DMSO

T3 sequence (O75365 whole entry): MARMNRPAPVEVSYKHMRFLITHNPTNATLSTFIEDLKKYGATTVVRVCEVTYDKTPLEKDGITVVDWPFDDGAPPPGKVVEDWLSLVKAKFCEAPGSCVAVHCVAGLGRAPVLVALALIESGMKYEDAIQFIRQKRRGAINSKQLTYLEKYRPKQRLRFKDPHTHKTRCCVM

Compound	% Phosphatase Activity (compared to DMSO) PRL-1 [1, 4]	% Phosphatase Activity (compared to DMSO) PRL-2 [2, 4]	% Phosphatase Activity (compared to DMSO) PRL-3 [3, 4]	also measured
COc1ccc(/C=C\c2cc(OC)c(OC)c(OC)c2)cc1OP(=O)([O-])[O-].[Na+].[Na+]	88%	76%	109%	
CCCC(CCC)C(=O)[O-].[Na+]				% Phosphatase Activity (compared to DMSO) PRL-1 [1, 5]: 86%; % Phosphatase Activity (compared to DMSO) PRL-2 [2, 5]: 75%; % Phosphatase Activity (compared to DMSO) PRL-3 [3, 5]: 77%
17-Hydroxyprogesterone	86%	77%	86%	
OC[C@H]1O[C@@H](O[C@@H]2[C@@H](CO)OC(O)(CO)[C@H]2O)[C@H](O)[C@@H](O)[C@H]1O (mixture of isomers) [Lactulose]	104%	115%	85%	
CN(N=O)C(=O)N[C@H]1C(O)O[C@H](CO)[C@@H](O)[C@@H]1O (mixture of isomers) [Streptozotocin (STZ)]				% Phosphatase Activity (compared to DMSO) PRL-1 [1, 5]: 96%; % Phosphatase Activity (compared to DMSO) PRL-2 [2, 5]: 88%; % Phosphatase Activity (compared to DMSO) PRL-3 [3, 5]: 78%
Cl.NCC(O)c1ccc(O)cc1 (racemic) [(+,-)-Octopamine HCl]	110%	102%	78%	
O=C1C(CC[S+]([O-])c2ccccc2)C(=O)N(c2ccccc2)N1c1ccccc1 (racemic) [(+/-)-Sulfinpyrazone]	88%	95%	82%	
COC(=O)C1=C(C)NC(C)=C(C(=O)O[C@@H]2CCCN(Cc3ccccc3)C2)[C@@H]1c1cccc([N+](=O)[O-])c1.Cl (racemic) [Benidipine HCl]	91%	107%	94%	
C[N+](C)(C)CC(O)CC(=O)O.[Cl-] (racemic) [DL-Carnitine HCl]	100%	94%	85%	
CC(C)(CO)C(O)C(=O)NCCCO (racemic) [DL-Panthenol]	109%	91%	82%	
CC(CCc1ccc(O)cc1)NCC(O)c1ccc(O)cc1.Cl (racemic) [Ractopamine HCl]	103%	113%	100%	
Cl.N[C@@H]1C[C@H]1c1ccccc1 (racemic) [Tranylcypromine (2-PCPA) HCl]				% Phosphatase Activity (compared to DMSO) PRL-1 [1]: 111%; % Phosphatase Activity (compared to DMSO) PRL-2 [2]: 110%; % Phosphatase Activity (compared to DMSO) PRL-3 [3]: 87%
c1ccc(C2CN3CCSC3=N2)cc1 (single isomer, unassigned; (-)) [(-)-Tetramisole]				% Phosphatase Activity (compared to DMSO) PRL-1 [1]: 93%; % Phosphatase Activity (compared to DMSO) PRL-2 [2]: 92%; % Phosphatase Activity (compared to DMSO) PRL-3 [3]: 99%
NC(=O)CCC(N)C(=O)O (stereo in doubt) [D-glutamine]	96%	80%	94%	
COc1ccc(C(=O)c2ccccc2O)c(O)c1 [2,2′-Dihydroxy-4-methoxybenzophenone]	90%	107%	79%	
CC1(C)OC(=O)NC1=O [5,5-Dimethyloxazolidine-2,4-dione]	94%	94%	82%	
Cl.NCC(=O)CCC(=O)O [5-Aminolevulinic acid HCl]	106%	130%	86%	

Compound	% Phosphatase Activity (compared to DMSO) PRL-1 [1, 4]	% Phosphatase Activity (compared to DMSO) PRL-2 [2, 4]	% Phosphatase Activity (compared to DMSO) PRL-3 [3, 4]	also measured
Oc1c(I)cc(Cl)c2cccnc12 [5-Chloro-8-hydroxy-7-iodoquinoline]	96%	90%	71%	
O.S=c1[nH]cnc2nc[nH]c12 [6-Mercaptopurine (6-MP) Monohydrate]	95%	108%	85%	
C=CCNC1=C2C[C@@H](C)C[C@H](OC)[C@H](O)[C@@H](C)/C=C(\C)[C@H](OC(N)=O)[C@@H](OC)/C=C\C=C(/C)C(=O)NC(=CC1=O)C2=O [17-AAG (Tanespimycin)]	86%	83%	81%	
CC12CCC(CC1=O)C2(C)C (stereo not drawn) [(+)-Camphor]	116%	132%	104%	
CC(C)NC[C@@H](O)COc1ccc(CC(N)=O)cc1 [(R)-(+)-Atenolol]	113%	109%	74%	
NC[C@H](CC(=O)O)c1ccc(Cl)cc1 [(R)-baclofen]	95%	121%	117%	
CC1(C)CCC(CN2CCN(c3ccc(C(=O)NS(=O)(=O)c4ccc(NCC5CCOCC5)c([N+](=O)[O-])c4)c(Oc4cnc5[nH]ccc5c4)c3)CC2)=C(c2ccc(Cl)cc2)C1 [ABT-199 (GDC-0199)]	68%	30%	78%	
CC1(C)CCC(c2ccc(Cl)cc2)=C(CN2CCN(c3ccc(C(=O)NS(=O)(=O)c4ccc(N[C@H](CCN5CCOCC5)CSc5ccccc5)c(S(=O)(=O)C(F)(F)F)c4)cc3)CC2)C1 [ABT-263 (Navitoclax)]	90%	75%	81%	
CCN(CC)CCCC(C)Nc1ccnc2cc(Cl)ccc12 (stereo not shown) [Chloroquine Phosphate]	104%	115%		
C=CCN1CC[C@]23c4c5ccc(O)c4O[C@H]2C(=O)CC[C@@]3(O)[C@H]1C5 [Naloxone HCl]	105%	123%		
Nc1ccc(S(=O)(=O)Nc2ncccn2)cc1 [Sulfadiazine]				% Phosphatase Activity (compared to DMSO) PRL-1 [1]: 105%; % Phosphatase Activity (compared to DMSO) PRL-3 [3]: 103%
CN1CCN(CCCN2c3ccccc3Sc3ccc(C(F)(F)F)cc32)CC1.Cl.Cl [Trifluoperazine 2HCl]				% Phosphatase Activity (compared to DMSO) PRL-1 [1, 5]: 103%; % Phosphatase Activity (compared to DMSO) PRL-3 [3, 5]: 100%
Colistin Sulfate	91%		120%	
Gentamicin Sulfate	95%	96%		
Maraviroc	82%		93%	
Polymyxin B sulphate	98%		98%	
